Experimental findings from ChEMBL document CHEMBL4004816, “Complementarity of DFT Calculations, NMR Anisotropy, and ECD for the Configurational Analysis of Brevipolides K-O from Hyptis brevipes” (J Nat Prod, 2017) are described below.

A value given as a limit tells only on which side of the number the result lay.

Common to all, as to type: functional, cell-based
The test system of one experiment is KB. Description: Cytotoxicity against human KB cells assessed as growth inhibition after 72 hrs by SRB assay.
The next experiment concerns HEp-2. Nature of the experiment: Cytotoxicity against human Hep2 cells assessed as growth inhibition after 72 hrs by SRB assay. To be noted: HEp-2, 72 h.
Another experiment concerns MCF7. Nature of the experiment: Cytotoxicity against human MCF7 cells assessed as growth inhibition after 72 hrs by SRB assay. To be noted: MCF7, 72 h.
In the next experiment the test system is HeLa. Nature of the experiment: Cytotoxicity against human HeLa cells assessed as growth inhibition after 72 hrs by SRB assay.
The test system of a further experiment is PC-3. Description: Cytotoxicity against human PC3 cells assessed as growth inhibition after 72 hrs by SRB assay. To be noted: PC-3, 72 h.
The subject of a further experiment is HCT-15. Nature of the experiment: Cytotoxicity against human HCT15 cells assessed as growth inhibition after 72 hrs by SRB assay. To be noted: HCT-15, 72 h.

Consider `C[C@H](OC(=O)/C=C/c1ccc(O)cc1)[C@@H]1CC[C@H]([C@H](O)[C@H]2CC=CC(=O)O2)O1`, for which the IC50 in the experiment with KB was 3.6 µM; in the experiment on HEp-2 it was over 10 µM; in the experiment on MCF7, over 10 µM; in the experiment on HeLa it was 9.5 µM; in the experiment on PC-3, over 10 µM; in the experiment on HCT-15, over 10 µM.

Regarding `COc1ccc(/C=C\C(=O)O[C@@H](C)[C@@H]2CC[C@H]([C@H](O)[C@H]3CC=CC(=O)O3)O2)cc1`, the IC50 with KB was 9.5 µM; with HEp-2, over 10 µM; in the experiment on MCF7, over 10 µM; in the experiment on HeLa it was 4.2 µM; with PC-3, 10 µM; in the experiment with HCT-15 it was over 10 µM.

`COc1ccc(/C=C/C(=O)O[C@@H](C)[C@@H]2CC[C@H]([C@H](O)[C@H]3CC=CC(=O)O3)O2)cc1`: the IC50 in the experiment on KB is 1.7 µM; in the experiment on HEp-2 it was 5.7 µM; with MCF7, over 10 µM; in the experiment on HeLa it was 6 µM; in the experiment with PC-3 it was 7.5 µM; in the experiment with HCT-15, over 10 µM.

As to `C[C@H](OC(=O)/C=C/c1ccc(O)c(O)c1)[C@@H]1CC[C@H]([C@H](O)[C@H]2CC=CC(=O)O2)O1`, the IC50 in the experiment on KB is 4.9 µM; in the experiment on HEp-2, 9.4 µM; with MCF7 it was over 10 µM; in the experiment on HeLa, 6.9 µM; in the experiment on PC-3, over 10 µM; with HCT-15 it was over 10 µM.

As for `C[C@H](OC(=O)/C=C\c1ccc(O)cc1)[C@@H]1CC[C@H]([C@H](O)[C@H]2CC=CC(=O)O2)O1`, the IC50 with KB was 7.5 µM; in the experiment with HEp-2, 7.7 µM; in the experiment with MCF7, 9.3 µM; in the experiment with HeLa it was 3.3 µM; with PC-3, 8.8 µM; in the experiment with HCT-15, over 10 µM.

As for `CC[C@]1(O)C[C@@H]2CN(CCc3c([nH]c4ccccc34)[C@@](C(=O)OC)(c3cc4c(cc3OC)N(C)[C@H]3[C@@](O)(C(=O)OC)[C@H](OC(C)=O)[C@]5(CC)C=CCN6CC[C@]43[C@@H]65)C2)C1` [VINBLASTINE], the IC50 in the experiment with KB turned out to be 0.006 µM; with HEp-2, 0.007 µM; in the experiment on MCF7, 0.004 µM; in the experiment with HeLa it was 0.001 µM; in the experiment with PC-3 it was 0.001 µM; in the experiment with HCT-15, 0.002 µM.
